In paper doi:10.1101/2021.08.02.454818v1 (biorxiv, 2021):

Target: T1, CdRelQ (Clostridioides difficile, UniProt A0A9R0BI07)
T1 sequence (A0A9R0BI07 1-270): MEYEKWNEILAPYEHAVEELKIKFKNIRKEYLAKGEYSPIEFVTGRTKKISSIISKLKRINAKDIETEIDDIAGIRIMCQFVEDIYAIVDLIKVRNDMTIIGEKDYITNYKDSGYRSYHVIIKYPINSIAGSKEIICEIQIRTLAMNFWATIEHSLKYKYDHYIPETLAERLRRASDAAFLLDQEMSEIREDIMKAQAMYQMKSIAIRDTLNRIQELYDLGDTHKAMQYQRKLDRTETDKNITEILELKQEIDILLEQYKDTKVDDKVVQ
Test: isothermal titration calorimetry, single-binding-site model

SMILES	Kd
Nc1nc2c(ncn2[C@@H]2O[C@H](COP(=O)(O)OP(=O)(O)O)[C@@H](O)[C@H]2O)c(=O)[nH]1 [GDP]	490 µM
Nc1nc2c(ncn2[C@@H]2O[C@H](COP(=O)(O)OP(=O)(O)OP(=O)(O)O)[C@@H](O)[C@H]2O)c(=O)[nH]1 [GTP]	20.5 µM
